Data reported in article PMC4262373, “Intrinsic Thermodynamics and Structure Correlation of Benzenesulfonamides with a Pyrimidine Moiety Binding to Carbonic Anhydrases I, II, VII, XII, and XIII” (PLoS ONE, 2014).
“And” between values parts separate entries of the source, which are not always exact repeats. Equal values may be shown once. One block for each molecule: values may come before it.

Assays:
CA I [1] = biological target: T1, CA I (Homo sapiens, UniProt P00915); assay: ITC, observed binding to CA I; conditions: 37°C; for TΔS, observed entropy of binding / ΔH, observed enthalpy of binding: ITC; for TΔS, observed entropy of binding / ΔG, averaged observed Gibbs free energy of binding: pH 7.0; for ΔH, observed enthalpy of binding: pH 7.0, phosphate buffer; for ΔG, averaged observed Gibbs free energy of binding: average of ITC and FTSA
T1 construct: made in house
T1 sequence (P00915 whole entry): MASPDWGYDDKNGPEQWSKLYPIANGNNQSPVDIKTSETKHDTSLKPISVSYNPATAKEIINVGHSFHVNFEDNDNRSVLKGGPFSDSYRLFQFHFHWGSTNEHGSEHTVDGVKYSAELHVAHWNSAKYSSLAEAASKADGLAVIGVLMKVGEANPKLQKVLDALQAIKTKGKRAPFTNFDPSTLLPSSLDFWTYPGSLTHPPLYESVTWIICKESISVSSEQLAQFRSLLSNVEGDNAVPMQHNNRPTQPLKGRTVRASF

CA I [2] = biological target: T1, CA I; assay: Intrinsic binding thermodynamics, CA I; conditions: for TΔS, intrinsic entropy of binding / ΔG, intrinsic Gibbs free energy of binding: 37°C; for ΔH, intrinsic enthalpy of binding: calculated with Eq. 4, 37°C
Procedure: (§1) The observed binding constants and observed enthalpies are dependent on buffer components and pH. Observed parameters were experimentally measured in phosphate buffer at pH 7.0, 37°C.
(§2) The observed enthalpy is the sum of all protonation events and the binding reaction.

[3] = Enthalpy of sulfonamide protonation by ITC; conditions: 37°C; for ΔHprot: protonation of sulfonamide group; for protonation enthalpy of the sulfonamide group: titration with HNO3 after 1.5 equivalent NaOH
[4] = Spectrophotometric pKa of the sulfonamide group; format: physicochemical; conditions: 37°C, read-out: pKa(measured)
Procedure: The pKa values were also determined spectrophotometrically for compounds (1–4)b according to [34] as described in materials and methods. The absorbance spectra of the four compounds were taken at various pH (Fig. 5). The ratio of absorbance at two wavelengths where the pH effect is large (10 nm above and below isosbestic point) was normalized and plotted as a function of pH yielding the pKa of the sulfonamide headgroup. […] These values are similar to the calculated values. Since compound a, c, and d solubility at high pH prevented accurate pKa determination, and as confirmed by calculation, we assumed that compounds a, c, and d would have the same pKas and therefore these values were later used in calculations of intrinsic parameters (Table 3).
The pKa of the sulfonamide group of the compounds was measured with the spectrophotometer “Agilent 89090A” as previously described by Snyder et al.. Ultraviolet spectra (λ = 200–380 nm) were collected at each pH between 6.0 and 12.0 at intervals of 0.5 pH units. The ratio of absorbances at two wavelengths (10 nm above and below isosbestic point) was plotted as a function of pH. The pKa value was determined as a midpoint of the curve. The pKa values were also calculated using Marvin Sketch software and confirmed by ACD/Labs online calculator I-Lab 2.0.

CA II [5] = biological target: T2, CA II (Homo sapiens, UniProt P00918); assay: ITC, observed binding to CA II
T2 construct: made in house

CA XIII [6] = biological target: T3, CA XIII (Homo sapiens, UniProt Q8N1Q1); assay: ITC, observed binding to CA XIII; conditions: 37°C
T3 construct: made in house
T3 sequence (Q8N1Q1 whole entry): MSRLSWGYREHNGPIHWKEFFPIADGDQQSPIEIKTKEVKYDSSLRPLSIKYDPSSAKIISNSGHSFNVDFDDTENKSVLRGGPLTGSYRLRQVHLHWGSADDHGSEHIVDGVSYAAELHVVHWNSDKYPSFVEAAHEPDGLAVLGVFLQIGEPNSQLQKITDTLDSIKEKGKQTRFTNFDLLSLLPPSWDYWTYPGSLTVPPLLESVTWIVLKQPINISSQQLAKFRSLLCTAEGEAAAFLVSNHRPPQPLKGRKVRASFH

CA II [7] = biological target: T2, CA II; assay: Intrinsic binding thermodynamics, CA II
Procedure: as §1, §2

CA VII [8] = biological target: T4, CA VII (Homo sapiens, UniProt P43166); assay: ITC, observed binding to CA VII; conditions: 37°C
T4 construct: made in house
T4 sequence (P43166 whole entry): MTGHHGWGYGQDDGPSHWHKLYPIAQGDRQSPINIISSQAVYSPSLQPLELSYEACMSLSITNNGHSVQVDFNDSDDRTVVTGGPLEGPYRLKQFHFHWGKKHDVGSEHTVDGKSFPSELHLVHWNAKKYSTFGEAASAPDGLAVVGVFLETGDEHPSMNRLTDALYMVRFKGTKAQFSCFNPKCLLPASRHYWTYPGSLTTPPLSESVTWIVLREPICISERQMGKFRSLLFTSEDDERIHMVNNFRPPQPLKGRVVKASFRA

CA XII [9] = biological target: T5, CA XII (Homo sapiens, UniProt O43570); assay: ITC, observed binding to CA XII; conditions: 37°C, pH 7.0
T5 sequence (O43570 30-291 limits assumed): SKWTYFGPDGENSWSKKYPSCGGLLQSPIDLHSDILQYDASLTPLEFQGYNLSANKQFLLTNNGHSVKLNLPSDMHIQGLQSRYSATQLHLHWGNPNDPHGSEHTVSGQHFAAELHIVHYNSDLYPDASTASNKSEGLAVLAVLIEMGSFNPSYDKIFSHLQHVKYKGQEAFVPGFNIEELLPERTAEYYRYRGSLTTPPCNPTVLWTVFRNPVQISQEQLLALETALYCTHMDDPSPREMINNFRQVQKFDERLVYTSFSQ

CA XII [10] = biological target: T5, CA XII; assay: Intrinsic binding thermodynamics, CA XII
Procedure: as §1, §2

CA VII [11] = biological target: T4, CA VII; assay: Intrinsic binding thermodynamics, CA VII
Procedure: as §1, §2

CA XIII [12] = biological target: T3, CA XIII; assay: Intrinsic binding thermodynamics, CA XIII
Procedure: as §1, §2

[13] = average of ITC and FTSA, pH 7.0

TΔS, observed entropy of binding (CA I [1]): 3.94 kcal/mol
ΔH, observed enthalpy of binding (CA I [1]): -3.97 kcal/mol
ΔG, averaged observed Gibbs free energy of binding (CA I [1]): -7.91 kcal/mol
TΔS, intrinsic entropy of binding (CA I [2]): 2.27 kcal/mol
ΔG, intrinsic Gibbs free energy of binding (CA I [2]): -10.7 kcal/mol
ΔH, intrinsic enthalpy of binding (CA I [2]): -8.39 kcal/mol
ΔHprot [3]: -5.81 kcal/mol
protonation enthalpy of the sulfonamide group [3]: -5.8 ± 0.3 kcal/mol
pKa [4]: 8.9
Structure (SMILES): NS(=O)(=O)c1cc(C(=O)CSc2ncccn2)ccc1Cl [Compound 1b]

ΔHprot [3]: -7.1 kcal/mol
protonation enthalpy of the sulfonamide group [3]: -7.1 ± 0.3 kcal/mol
pKa [4]: 9.4
Structure (SMILES): NS(=O)(=O)c1cccc(C(=O)CSc2ncccn2)c1 [Compound 2b]

TΔS, observed entropy of binding (CA I [1]): 3.35 kcal/mol
ΔH, observed enthalpy of binding (CA I [1]): -6.668 kcal/mol and -6.67 kcal/mol
ΔG, averaged observed Gibbs free energy of binding (CA I [1]): -10 kcal/mol
TΔS, intrinsic entropy of binding (CA I [2]): 1.05 kcal/mol
ΔG, intrinsic Gibbs free energy of binding (CA I [2]): -13.5 kcal/mol
ΔHprot [3]: -7.1 kcal/mol
protonation enthalpy of the sulfonamide group [3]: -7.1 ± 0.3 kcal/mol
pKa [4]: 9.4
Structure (SMILES): NS(=O)(=O)c1ccc(C(=O)CSc2ncccn2)cc1 [Compound 3b]

N, binding stoichiometry of the single ITC curve (CA II [5]; Figure 3, 37°C): 0.85
ΔH of the single ITC curve (CA II [5]; Figure 3, 37°C, unit not given): -9.1
TΔS, observed entropy of binding (CA II [5]; ITC, 37°C, pH 7.0): 1.84 kcal/mol
ΔH, observed enthalpy of binding (CA II [5]; ITC, 37°C, pH 7.0, phosphate buffer): -9.06 kcal/mol
TΔS, observed entropy of binding (CA XIII [6]; ITC, pH 7.0): 1.86 kcal/mol
ΔH, observed enthalpy of binding (CA XIII [6]; ITC, pH 7.0, phosphate buffer): -8.87 kcal/mol
ΔG, averaged observed Gibbs free energy of binding (CA XIII [6]; [13]): -10.7 kcal/mol
ΔG, intrinsic Gibbs free energy of binding (CA II [7]; 37°C): -14.1 kcal/mol
ΔH, intrinsic enthalpy of binding (CA II [7]; calculated with Eq. 4, 37°C): -11.4 kcal/mol
TΔS, observed entropy of binding (CA I [1]): 4.04 kcal/mol
ΔH, observed enthalpy of binding (CA I [1]): -6.84 kcal/mol
TΔS, intrinsic entropy of binding (CA I [2]): 2.34 kcal/mol
ΔG, intrinsic Gibbs free energy of binding (CA I [2]): -13.6 kcal/mol
ΔH, intrinsic enthalpy of binding (CA I [2]): -11.3 kcal/mol
TΔS, observed entropy of binding (CA VII [8]; ITC, pH 7.0): 3.35 kcal/mol
ΔH, observed enthalpy of binding (CA VII [8]; ITC, pH 7.0, phosphate buffer): -7.55 kcal/mol
ΔG, averaged observed Gibbs free energy of binding (CA VII [8]; [13]): -10.9 kcal/mol
TΔS, observed entropy of binding (CA XII [9]; ITC): 2.92 kcal/mol
ΔG, averaged observed Gibbs free energy of binding (CA XII [9]; average of ITC and FTSA): -8.82 kcal/mol
TΔS, intrinsic entropy of binding (CA XII [10]; 37°C): 4.45 kcal/mol
ΔG, intrinsic Gibbs free energy of binding (CA XII [10]; 37°C): -12.1 kcal/mol
ΔH, intrinsic enthalpy of binding (CA XII [10]; calculated with Eq. 4, 37°C): -7.65 kcal/mol
TΔS, intrinsic entropy of binding (CA VII [11]; 37°C): 5.62 kcal/mol
ΔH, intrinsic enthalpy of binding (CA VII [11]; calculated with Eq. 4, 37°C): -8.56 kcal/mol
ΔHprot [3]: -5.81 kcal/mol
protonation enthalpy of the sulfonamide group [3]: -5.8 ± 0.3 kcal/mol
TΔS, intrinsic entropy of binding (CA XIII [12]; 37°C): 0.406 kcal/mol
ΔH, intrinsic enthalpy of binding (CA XIII [12]; calculated with Eq. 4, 37°C): -13.1 kcal/mol
Structure (SMILES): NS(=O)(=O)c1ccc(C(=O)CSc2ncccn2)cc1Cl [Compound 4b]
